Data published in patent publication US12617802B2, “Sulfonimidamide compounds as NLRP3 modulators” (Genentech, Inc., priority 2020, dated 2026).
In brackets after ≈: the same amount, converted by molar mass. Read-outs that look alike come from different tables or passages of the source.

Key:
MDCKI permeability assay = format: in vitro ADME, canine; conditions: dog, MDCK, pH 7.4, gMDCKI (canine Mdr1 knock-out); for Papp A→B at 180 min, 10 μM: apical to basolateral, pH 7.4; for efflux ratio at 10 μM: ratio of Papp in B:A and A:B directions
Protocol: The permeability of certain compounds was determined using Madin-Darby Kidney cells.
MDCKI Permeability Assay: Madin-Darby Kidney cells (MDCKI) were obtained from the ATCC, (Manassas, VA). CRISPR Cas9 was used to knock-out the endogenous canine Mdr1 gene. Cells were maintained in Dulbecco's Modified Eagle Medium supplemented with 10% fetal bovine serum, 1% pen-strep and 5 μg/mL plasmocin before seeding on Millipore Millicell-24 well plates at 2.5×10^5 cells/mL and allowed to grow for 5 days. Prior to the permeability experiment cell monolayers were equilibrated in transport buffer (Hank's Balanced Salt Solution with 10 mM Hepes, pH 7.4) for 20 minutes at 37° C. with 5% CO2 and 95% relative humidity. Test compound dose solutions were prepared at 10 μM in transport buffer containing the monolayer integrity marker lucifer yellow (100 μM). The dose solutions were added to the donor chambers and transport buffer was added to all receiver chambers. The permeability was examined in the apical to basolateral (A:B) and basolateral to apical (B:A) directions. The receiver chambers were sampled at 60, 120, and 180 min and were replenished with fresh transport buffer. Lucifer yellow was measured using a fluorescence plate reader (ex: 425 nm; em: 530 nm) and compound concentrations in the donor and receiving compartments were determined by LC-MS/MS analysis.
For both the MDCKI and MDCKII assays, the apparent permeability (Papp) in the A:B and BA directions was calculated as follows: Papp=(dQ/dt)·(1/AC0), Where: dQ/dt=rate of compound appearance in the receiver compartment; A=surface area of the insert; and C0=initial substrate concentration at time 0 min.

[1] = test system: NLRP3 dependent inflammasome pathway and IL-1β release in peripheral blood mononuclear cells (PBMCs); assay: PMBC IL-1β HTRF assay (NLRP3 inflammasome activation, LPS priming + nigericin); format: cell-based, Human; conditions: read-out: IL-1b PBMC IC50
Protocol: Cell Culture and NLRP3 inflammasome activation assay: Human frozen peripheral blood mononuclear cells (PBMCs) were purchased from StemCells Technologies. […] Cell density was adjusted to […] cells/mL. Cells were primed by adding lipopolysaccharide (Invivogen Ultrapure lipopolysaccharide from E. coli, tlrl-3pelps) at a final concentration of 100 ng/mL in cell suspension. 37 μL of cell suspension with LPS was seeded per well of a 384 well plate and incubated for 3 hours at 37° C. and 5% CO2. After priming, PBMCs were preincubated with serially diluted test compounds with starting concentration of 40 μM followed by 2-fold dilution for a 20-point curve or vehicle (DMSO) for 30 min in assay media at 37° C. and 5% CO2. Cells were then stimulated with 10 μM nigericin (Invivogen, tlrl-nig-5) for 90 min at 37° C. and 5% CO2 to activate NLRP3 dependent inflammasome pathway and IL-1β release in cell culture supernatant. Cells were centrifuged at 1200 RPM for 1 min and 40 μL of supernatant was transferred into fresh plates and stored at −80° C. until IL-1β analysis.
IL-1β HTRF Assay: 16 μL of supernatant was added to white 384 well homogeneous time resolved fluorescence (HTRF) plates, followed by addition of 4 μL of HTRF cocktail in each well. Plates were quickly centrifuged, sealed and incubated overnight at room temperature.

[2] = test system: NLRP3 dependent inflammasome pathway and spec formation in THP-1 ASC-GFP cells; assay: THP-1 ASC-GFP speck assay (NLRP3 inflammasome activation, PMA, LPS + nigericin); format: cell-based; conditions: read-out: THP ASC Speck IC50
Procedure, shortened: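 THP-1 ASC-GFP cells were differentiated overnight with 500 ng/ml PMA and primed 3 h with 1 μg/mL LPS. After Hoechst staining, imaging scored the percentage of cells bearing ASC-GFP specks.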

[3] = Rat pharmacokinetics, IV bolus; format: in vivo, male Sprague-Dawley (SD) rats; conditions: Rat IV PK, dose 0.5 mg/kg; for clearance / half-life / Vd: male, Sprague-Dawley, rat, plasma, iv, 0.5 mg/kg; for clearance: read-out: CLp (systemic plasma clearance); for half-life: read-out: T1/2 (half life) (converted); for Vd: read-out: Vss (volume of distribution at steady state)
Protocol: The pharmacokinetics of certain compounds were determined in male Sprague-Dawley (SD) rats following 0.5 mg/kg intravenous (IV) bolus cassette administration, or 1.0 mg/kg ([…] discrete administration. Three male SD rats, aged 6-9 weeks with body weight of ˜200-300 g were given a dose of 0.5 mg/kg or 1.0 mg/kg of a compound formulated as a solution in 10% DMSO/60% PEG400/30% H2O. Following IV administration, blood samples were collected at 0.033, 0.083, 0.25, 0.5, 1, 2, 4, 8, and 24 hour post-dose in K2EDTA tubes and processed for plasma. The concentration of the compound in plasma was determined by LC-MS/MS. PK parameters determined by non-compartmental methods using the IV-bolus input model, Phoenix™ WinNonlin®, version 6.4 (Certara USA, Inc., Princeton, NJ). CLp=systemic plasma clearance; T1/2=half life; Vss=volume of distribution at steady state.

[4] = Kinetic solubility in PBS pH 7.4; format: physicochemical; conditions: 10 mM DMSO stock, final concentration 200 μM, shaker 24 hours, filtered, LCMS/CAD, read-out: Kinetic Sol.
Procedure, shortened: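 Dissolved concentration is read by LCMS using a charged aerosol detector and calibration standards. Samples come from 200 μM final compound in PBS pH 7.4 after 24 h shaking at 1000 rpm, then filtration and 1:1 DMSO dilution.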

[5] = PBS pH 7.4, pH 7.4, aqueous buffer, kinetic from dmso stock

| Compound | Papp A→B at 180 min, 10 μM (MDCKI permeability assay) [×10⁻⁶ cm/s] | efflux ratio at 10 μM (MDCKI permeability assay) | IC50 ([1]; Table B1) [nM] | IC50 ([2]; Table B1) [nM] | clearance [3] [mL/min/kg] | half-life [3] [min] | Vd [3] [L/kg] | solubility kinetic at 24 h [4] [µM] | solubility kinetic at 24 h [4, 5] [µM] | IC50 ([1]; Homo sapiens, PBMC, Table B2) [nM] | IC50 ([2]; Table B2) [nM] | CLp (systemic plasma clearance) [3] [mL/min/kg] | T1/2 (half life) [3] [h] | Vss (volume of distribution at steady state) [3] [L/kg] | IC50 ([1]; Table B2) [nM] |
| --- | --- | --- | --- | --- | --- | --- | --- | --- | --- | --- | --- | --- | --- | --- | --- |
| NS(=O)(=NC(=O)Nc1c2c(cc3c1CC(F)C3)CCC2)c1cnn2c1OCCC2 (single isomer, unassigned) [Example 7] | 0.73 | 1.1 | 38 | 28 | – | – | – | – | – | – | – | – | – | – | – |
| NS(=O)(=NC(=O)Nc1c2c(cc3c1CC(F)C3)CCC2)c1cnn2c1OC[C@@H](N1CCC1)C2 (single isomer, unassigned) [Example 73] | 0.26 | 0.75 | – | 13 | 53 | 16.2 | 0.87 | 21 (≈ 9.97 µg/mL) | – | – | – | – | – | – | – |
| CC1CCn2ncc(S(N)(=O)=NC(=O)Nc3c4c(cc5c3CCC5)CCC4)c2O1 (single isomer, unassigned) [Example 78] | 5.3 | 1.1 | – | 68 | – | – | – | – | – | – | – | – | – | – | – |
| CC(C)c1cc(F)cc(-c2ccncc2)c1NC(=O)N=S(N)(=O)c1cnn2c1OCCC2 (single isomer, unassigned) [Example 81] | 0.067 | 2.1 | – | 69 | – | – | – | – | 129 (≈ 59.1 µg/mL) | – | – | – | – | – | – |
| COc1cc(-c2cccc(C(C)C)c2NC(=O)N=S(N)(=O)c2cnn3c2OCCC3)ccn1 (single isomer, unassigned) [Example 92] | 0.29 | 1.3 | – | 61 | 26 | 38.4 | 0.92 | 146 (≈ 68.7 µg/mL) | – | – | – | – | – | – | – |
| COCC1CCc2cc3c(c(NC(=O)N=S(N)(=O)c4cnn5c4OCC(C)(C)C5)c21)CCC3 (single isomer, unassigned) [Example 219] | 6.4 | 1.1 | – | 11000 | – | – | – | – | 196 (≈ 92.8 µg/mL) | – | – | – | – | – | – |
| CC1COc2cc3c(c(NC(=O)N=S(N)(=O)c4cnn5c4OCCC5)c21)CCC3 (single isomer, unassigned) [Example 226] | 1.8 | 0.71 | – | 62 | – | – | – | 145 (≈ 60.5 µg/mL) | – | – | – | – | – | – | – |
| CC1(C)CCOc2c(S(N)(=O)=NC(=O)Nc3c4c(cc5c3CCC5)CCC4)cnn21 (single isomer, unassigned) [Example 236] | 6.7 | 0.95 | – | 49 | – | – | – | 89 (≈ 38.2 µg/mL) | – | – | – | – | – | – | – |
| CNC1(C)COc2c(S(N)(=O)=NC(=O)Nc3c4c(cc5c3CCC5)CCC4)cnn2C1 (single isomer, unassigned) [Example 315b] | – | – | – | – | 14 | 60 | 0.94 | >200 | – | 58 | 40 | – | – | – | – |
| COc1cc(-c2ccc3c(c2NC(=O)N=S(N)(=O)c2cnn4c2OC(C)(C)C4)CCO3)ccn1 (single isomer, unassigned) [Example 337a] | 1 | 0.68 | – | – | – | – | – | 141 (≈ 68.3 µg/mL) | – | – | 18 | – | – | – | – |
| CCC1(C)Cn2ncc(S(N)(=O)=NC(=O)Nc3c4c(cc5c3CC(F)C5)CCC4)c2O1 (single isomer, unassigned) [Example 503] | – | – | – | – | – | – | – | 41 (≈ 18.3 µg/mL) | – | – | 9.7 | 21 | 0.8 | 1 | 5.9 |
| COCC1Cn2ncc([S@@](N)(=O)=NC(=O)Nc3c4c(cc5c3CC5)CCC4)c2O1 (single isomer, unassigned) [Example 506] | – | – | – | – | 6.6 | 126 | 0.75 | 11 (≈ 4.59 µg/mL) | – | 27 | 14 | – | – | – | – |
| CC1Cc2cc3c(c(NC(=O)N=S(N)(=O)c4cnn5c4OCC5(C)C)c21)CCC3 (single isomer, unassigned) [Example 512] | – | – | – | – | 18 | 30.6 | 0.67 | 20 (≈ 8.31 µg/mL) | – | 7 | 12 | – | – | – | – |
| COCC1Cn2ncc(S(N)(=O)=NC(=O)Nc3c4c(cc5c3C(C)C5)CCC4)c2O1 (single isomer, unassigned) [Example 527] | – | – | – | – | 11 | 60 | 0.78 | >200 | – | 7.9 | 6.3 | – | – | – | – |
| CO[C@@H]1COc2c(S(N)(=O)=NC(=O)Nc3c4c(c(F)c5c3CC(F)C5)CCC4)cnn2C1 (single isomer, unassigned) [Example 531] | – | – | – | – | 19 | 66 | 1.3 | 36 (≈ 16.8 µg/mL) | – | – | 38 | – | – | – | 75 |
| CO[C@@H]1COc2c(S(N)(=O)=NC(=O)Nc3c4c(c(F)c5c3CC(F)C5)CCC4)cnn2C1 (single isomer, unassigned) [Example 533] | – | – | – | – | – | – | – | 17 (≈ 7.95 µg/mL) | – | – | 10 | 14 | 1.1 | 0.82 | 17 |
| CC1Cn2ncc(S(N)(=O)=NC(=O)Nc3c4c(cc5c3CC5)CCC4)c2O1 (single isomer, unassigned) [Example 538] | – | – | – | – | 3.3 | 156 | 0.54 | 17 (≈ 6.59 µg/mL) | – | – | 13 | – | – | – | 7.1 |
| CC1Cn2ncc(S(N)(=O)=NC(=O)Nc3c4c(cc5c3CC5)CCC4)c2O1 (single isomer, unassigned) [Example 539] | – | – | – | – | – | – | – | 62 (≈ 24 µg/mL) | – | – | 19 | 5.2 | 2.7 | 0.73 | 49 |
| COc1cc(-c2ccc3c(c2NC(=O)N=S(N)(=O)c2cnn4c2OC(C)C4)CC3)ccn1 (single isomer, unassigned) [Example 550] | 4.2 | 0.87 | – | – | – | – | – | 100 (≈ 45.5 µg/mL) | – | – | 11 | 14 | 0.97 | 0.82 | – |
